Results as given in US11078170B2 (Assembly Biosciences, Inc., priority 2017, dated 2021).

Tested on: HBV viral production from HepAD38 cells
Assay: Activity of test compounds on viral production from HepAD38 cells (viral load by qPCR of HBV core sequence in supernatant)
Assay type: cell-based
Settings: Hepatitis B virus, 120 h, 5 days incubation, HBV DNA in supernatant by qPCR, top concentration 10 μM, read-out: Viral Load EC50 Activity range
Summary of the method: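 HepAD38 cells, 50,000/well in tetracycline-free 2% FBS medium, treated 5 days at 37° C. with compound from 10 μM top concentration. HBV DNA in supernatant quantified by TaqMan qPCR of core sequence against DNA standards, relative to DMSO wells; CellTiter-Glo viability read in parallel. EC50/CC50 from four-parameter logistic fit.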

For `CN1[C@H](C(=O)Nc2ccc(F)c(Cl)c2)C[C@H](c2ccc(C(N)=O)cc2)NS1(=O)=O` [HBV-CSU-214-ISO-II, Cis-5-(4-Carbamoylphenyl)-N-(3-chloro-4-fluorophenyl)-2-methyl-1,2,6-thiadiazinane-3-carboxamide 1,1-dioxide], the EC50 was < 1 µM.
`COc1ccccc1C1CC(C(=O)Nc2ccc(F)c(Cl)c2)N(C)S(=O)(=O)N1` (centres unmarked) [HBV-CSU-215] gave an EC50 of 1 to 5 µM.
For `CN1[C@@H](C(=O)Nc2ccc(F)c(Cl)c2)C[C@@H](c2ccc(OCC(=O)O)cc2)NS1(=O)=O` [HBV-CSU-216-ISO-II, Cis-2-(4-(5-((3-Chloro-4-fluorophenyl)carbamoyl)-6-methyl-1,1-dioxido-1,2,6-thiadiazinan-3-yl)phenoxy)acetic acid], the EC50 was > 5 µM.
`CN1[C@H](C(=O)Nc2ccc(F)c(Cl)c2)C[C@H](c2ccc(C(=O)O)cc2)NS1(=O)=O` [HBV-CSU-218-ISO-I, Cis-4-(5-((3-Chloro-4-fluorophenyl)carbamoyl)-6-methyl-1,1-dioxido-1,2,6-thiadiazinan-3-yl)benzoic acid] was tested, and the EC50 was > 5 µM.
With `CN1[C@@H](C(=O)Nc2ccc(F)c(Cl)c2)C[C@@H](c2ccc(C(=O)O)cc2)NS1(=O)=O` [HBV-CSU-218-ISO-II, Cis-4-(5-((3-Chloro-4-fluorophenyl)carbamoyl)-6-methyl-1,1-dioxido-1,2,6-thiadiazinan-3-yl)benzoic acid] the EC50 was 1 to 5 µM.
In the case of `CN1C(C(=O)Nc2ccc(F)c(Cl)c2)CC(c2ccc(O)c(Cl)c2)NS1(=O)=O` (stereo not drawn) [HBV-CSU-220, Cis-N-(3-chloro-4-fluorophenyl)-5-(3-chloro-4-hydroxyphenyl)-2-methyl-1,2,6-thiadiazinane-3-carboxamide 1,1-dioxide], the EC50 is reported as < 1 µM.
`CN1[C@H](C(=O)Nc2ccc(F)c(Cl)c2)C[C@H](C2CCCC2)NS1(=O)=O` [HBV-CSU-222-ISO-I, Cis-N-(3-chloro-4-fluorophenyl)-5-cyclopentyl-2-methyl-1,2,6-thiadiazinane-3-carboxamide 1,1-dioxide] was tested, and the EC50 was < 1 µM.
Work on `CN1[C@@H](C(=O)Nc2ccc(F)c(Cl)c2)C[C@@H](C2CCCC2)NS1(=O)=O` [HBV-CSU-222-ISO-II, Cis-N-(3-chloro-4-fluorophenyl)-5-cyclopentyl-2-methyl-1,2,6-thiadiazinane-3-carboxamide 1,1-dioxide] yielded an EC50 of 1 to 5 µM.
`Cc1ncc([C@H]2C[C@@H](C(=O)Nc3ccc(F)c(Cl)c3)N(C)S(=O)(=O)N2)s1` [HBV-CSU-224-ISO-I, Cis-N-(3-Chloro-4-fluorophenyl)-2-methyl-5-(2-methylthiazol-5-yl)-1,2,6-thiadiazinane-3-carboxamide 1,1-dioxide] was tested, and the EC50 was < 1 µM.
`Cc1ncc([C@@H]2C[C@H](C(=O)Nc3ccc(F)c(Cl)c3)N(C)S(=O)(=O)N2)s1` [HBV-CSU-224-ISO-II, Cis-N-(3-Chloro-4-fluorophenyl)-2-methyl-5-(2-methylthiazol-5-yl)-1,2,6-thiadiazinane-3-carboxamide 1,1-dioxide] was tested, and the EC50 was > 5 µM.
Work on `CN1C(C(=O)Nc2ccc(F)c(Cl)c2)CC(c2cnc(C(F)(F)F)s2)NS1(=O)=O` (stereo not drawn) [HBV-CSU-226, Cis-N-(3-chloro-4-fluorophenyl)-2-methyl-5-(2-(trifluoromethyl)thiazol-5-yl)-1,2,6-thiadiazinane-3-carboxamide 1,1-dioxide] yielded an EC50 of 1 to 5 µM.
In the case of `CN1[C@H](C(=O)Nc2ccc(F)c(Cl)c2)C[C@H](c2ccc(F)c(F)c2)NS1(=O)=O` [HBV-CSU-230-ISO-I, Cis-N-(3-Chloro-4-fluorophenyl)-5-(3,4-difluorophenyl)-2-methyl-1,2,6-thiadiazinane-3-carboxamide 1,1-dioxide], the EC50 is reported as < 1 µM.
In the case of `CN1[C@@H](C(=O)Nc2ccc(F)c(Cl)c2)C[C@@H](c2ccc(F)c(F)c2)NS1(=O)=O` [HBV-CSU-230-ISO-II, Cis-N-(3-Chloro-4-fluorophenyl)-5-(3,4-difluorophenyl)-2-methyl-1,2,6-thiadiazinane-3-carboxamide 1,1-dioxide], the EC50 is reported as > 5 µM.
In the case of `CN1[C@@H](C(=O)Nc2ccc(F)c(Cl)c2)C[C@@H](c2cccc(F)c2)NS1(=O)=O` [HBV-CSU-231-ISO-II, Cis-N-(3-Chloro-4-fluorophenyl)-5-(3-fluorophenyl)-2-methyl-1,2,6-thiadiazinane-3-carboxamide 1,1-dioxide], the EC50 is reported as > 5 µM.
`CN1C(C(=O)Nc2ccc(F)c(Cl)c2)CC(c2cnc(-c3ccccc3)s2)NS1(=O)=O` (centres unmarked) [HBV-CSU-235, N-(3-Chloro-4-fluorophenyl)-2-methyl-5-(2-phenylthiazol-5-yl)-1,2,6-thiadiazinane-3-carboxamide 1,1-dioxide] was tested, and the EC50 was < 1 µM.
For `CN1[C@H](C(=O)Nc2ccc(F)c(Cl)c2)C[C@H](c2cnc(-c3ccccc3)s2)NS1(=O)=O` [HBV-CSU-235-ISO-I, N-(3-Chloro-4-fluorophenyl)-2-methyl-5-(2-phenylthiazol-5-yl)-1,2,6-thiadiazinane-3-carboxamide 1,1-dioxide], the EC50 was < 1 µM.
For `CN1[C@@H](C(=O)Nc2ccc(F)c(Cl)c2)C[C@@H](c2cnc(-c3ccccc3)s2)NS1(=O)=O` [HBV-CSU-235-ISO-II, N-(3-Chloro-4-fluorophenyl)-2-methyl-5-(2-phenylthiazol-5-yl)-1,2,6-thiadiazinane-3-carboxamide 1,1-dioxide], the EC50 was > 5 µM.
With `CN1[C@@H](C(=O)Nc2ccc(F)c(Cl)c2)C[C@@H](c2ccc(-c3ccc(F)cc3)s2)NS1(=O)=O` [HBV-CSU-238-ISO-II] the EC50 was 1 to 5 µM.
With `CN1[C@H](C(=O)Nc2ccc(F)c(Cl)c2)C[C@H](c2ccc(-c3ccc(F)cc3)s2)NS1(=O)=O` [HBV-CSU-238-ISO-I] the EC50 was < 1 µM.
With `CN1C(C(=O)Nc2ccc(F)c(Cl)c2)CC(c2ccc(-c3ccc(F)cc3)s2)NS1(=O)=O` (centres unmarked) [HBV-CSU-238] the EC50 was < 1 µM.
In the case of `CN1[C@@H](C(=O)Nc2ccc(F)c(Cl)c2)C[C@@H](c2cc(-c3ccc(F)cc3)cs2)NS1(=O)=O` [HBV-CSU-239-ISO-II], the EC50 is reported as 1 to 5 µM.
With `CN1[C@H](C(=O)Nc2ccc(F)c(Cl)c2)C[C@H](c2cc(-c3ccc(F)cc3)cs2)NS1(=O)=O` [HBV-CSU-239-ISO-I] the EC50 was < 1 µM.
With `CN1C(C(=O)Nc2ccc(F)c(Cl)c2)CC(c2cc(-c3ccc(F)cc3)cs2)NS1(=O)=O` (centres unmarked) [HBV-CSU-239] the EC50 was < 1 µM.
In the case of `COc1ccc(-c2ccc([C@@H]3C[C@H](C(=O)Nc4ccc(F)c(Cl)c4)N(C)S(=O)(=O)N3)s2)cc1` [HBV-CSU-240-ISO-II], the EC50 is reported as 1 to 5 µM.
For `COc1ccc(-c2ccc([C@H]3C[C@@H](C(=O)Nc4ccc(F)c(Cl)c4)N(C)S(=O)(=O)N3)s2)cc1` [HBV-CSU-240-ISO-I], the EC50 was < 1 µM.
In the case of `COc1ccc(-c2csc([C@@H]3C[C@H](C(=O)Nc4ccc(F)c(Cl)c4)N(C)S(=O)(=O)N3)c2)cc1` [HBV-CSU-241-ISO-II], the EC50 is reported as 1 to 5 µM.
For `COc1ccc(-c2csc([C@H]3C[C@@H](C(=O)Nc4ccc(F)c(Cl)c4)N(C)S(=O)(=O)N3)c2)cc1` [HBV-CSU-241-ISO-I], the EC50 was < 1 µM.
With `COc1ccc(-c2csc(C3CC(C(=O)Nc4ccc(F)c(Cl)c4)N(C)S(=O)(=O)N3)c2)cc1` (centres unmarked) [HBV-CSU-241] the EC50 was < 1 µM.
`CN1[C@H](C(=O)Nc2ccc(F)c(Cl)c2)C[C@H](c2ccc(-c3ccc(F)cn3)s2)NS1(=O)=O` [HBV-CSU-242-ISO-I, Cis-N-(3-chloro-4-fluorophenyl)-5-(5-(5-fluoropyridin-2-yl)thiophen-2-yl)-2-methyl-1,2,6-thiadiazinane-3-carboxamide 1,1-dioxide] was tested, and the EC50 was < 1 µM.
